Laboratory results published in PubChem BioAssay (NCI).
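Where inhibition never reached the appropriate level, the endpoint shown equals the highest concentration tested. Otherwise, values were interpolated linearly from a five-concentration, 48-hour dose response in 96-well plates. TGI is the concentration that stops growth completely.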

Assays:
Assay in all cases: NCI-60 cell line screen, 48 h
SNB-19 CNS = tested on: SNB-19 CNS
T-47D breast = tested on: T-47D breast
UACC-257 melanoma = tested on: UACC-257 melanoma
MCF7 breast = tested on: MCF7 breast
TK-10 renal = tested on: TK-10 renal
BT-549 breast = tested on: BT-549 breast
HCT-15 colon = tested on: HCT-15 colon
786-0 renal = tested on: 786-0 renal
SF-539 CNS = tested on: SF-539 CNS
A549 NSCLC = tested on: A549 NSCLC

Row | Structure (SMILES) | TGI (SNB-19 CNS) [µM] | TGI (T-47D breast) [µM] | TGI (UACC-257 melanoma) [µM] | TGI (MCF7 breast) [µM] | TGI (TK-10 renal) [µM] | TGI (BT-549 breast) [µM] | TGI (HCT-15 colon) [µM] | TGI (786-0 renal) [µM] | TGI (SF-539 CNS) [µM] | TGI (A549 NSCLC) [µM]
1 | CC1(C)C2CCC1(CS(=O)(=O)Nc1ccccc1)C(=O)C2 (centres undefined) | > 100 | > 100 | > 100 | > 100 | > 100 | > 100 | > 100 | > 100 | > 100 | > 100
2 | COc1cc2c(cc1OCCCC(=O)Nc1cc(C(=O)Nc3cc(C(=O)Nc4cc(C(=O)NCCCN(C)C)n(C)c4)n(C)c3)n(C)c1)N=C[C@@H]1CCCN1C2=O | 17.6 | 4 | 4.09 | 7.25 | 3.49 | 4.91 | 3.86 | 2.37 | 8.72 | 36.1
3 | CC1(CCCC2(C)CCNC2=O)OCCO1 (centres undefined) | > 10 | > 10 | > 10 | > 10 | > 10 | > 10 | > 10 | > 10 | > 10 | > 10
4 | O=C1Cc2c(-c3ccc(Cl)cc3)cc(-c3ccccc3)nc2-c2ccccc2N1 | 7.31 | 12.9 | > 100 | > 42.5 | 21.3 | 50.7 | > 44.8 | 4.92 | 25.4 | 23.2
5 | O=S(=O)(c1cc(Cl)ccc1Cl)N1CCN(S(=O)(=O)c2cc(Cl)ccc2Cl)CC1 | > 100 | > 100 | > 100 | > 100 | > 100 | > 100 | > 100 | > 100 | > 100 | > 100
6 | Brc1ccc2c(-c3nc(-c4c[nH]c5ccccc45)cs3)c[nH]c2c1 | > 100 | > 100 | > 100 | > 100 | 45.8 | > 96.8 | > 100 | 81.1 | 69.5 | 74.6
7 | Oc1nc(N/N=C/c2c[nH]c3ccccc23)[nH]c1/C=C1\C=Nc2ccccc21 | > 100 | 36.5 | 79.4 | 29.5 | > 100 | 60.3 | 61 | 37 | 48.4 | 42.3
8 | CC(=O)Nc1ccc2c(C(=O)O)c(C)c(=O)[nH]c2n1 | > 100 | > 100 | > 100 | > 100 | > 100 | > 100 | > 100 | > 100 | > 100 | > 100
9 | O=C(Nc1ccccc1)c1cc2c(cc1Cl)Sc1nccn1S2(=O)=O | > 100 | > 72.9 | 53.7 | > 60 | > 100 | 60.7 | > 75.3 | 71.4 | > 83.6 | > 100
10 | CCCSc1cc(Cl)c(C)cc1S(=O)(=O)n1ccnc1OCCCN(C)C | > 100 | > 100 | > 100 | > 100 | > 100 | > 100 | > 100 | > 100 | > 100 | > 100
11 | O=S(=O)(c1ccccc1)n1c(C(O)c2ccncc2)cc2ccccc21 (centres undefined) | > 100 | > 100 | 38.9 | 40.5 | 79.7 | > 100 | > 100 | > 100 | > 100 | > 100
12 | CN(Cc1c2ccccc2cc2ccccc12)S(=O)(=O)c1ccc(-c2c3nc(c(-c4ccc(S(=O)(=O)N(C)Cc5c6ccccc6cc6ccccc56)cc4)c4ccc([nH]4)c(-c4ccc(S(=O)(=O)N(C)Cc5c6ccccc6cc6ccccc56)cc4)c4nc(c(-c5ccc(S(=O)(=O)N(C)Cc6c7ccccc7cc7ccccc67)cc5)c5ccc2[nH]5)C=C4)C=C3)cc1 | > 100 | > 100 | > 100 | > 100 | > 100 | > 100 | > 100 | > 100 | > 100 | > 100
13 | CC(=O)N1N=C(c2c(O)ccc3ccccc23)CC1C(=O)c1ccco1 (centres undefined) | – | > 100 | > 100 | 47.7 | > 100 | 45 | > 100 | > 100 | 66.9 | > 100
14 | [O-][n+]1onc2c3nn(-c4ccccc4)nc3ccc21 | > 100 | 32.4 | > 92.2 | > 100 | > 88.7 | > 100 | > 100 | > 100 | > 100 | > 100
15 | CC/C(Cl)=N\OC(=O)Nc1ccc(OC)cc1 | 56.2 | 13.8 | 30.2 | 12.2 | 18.2 | 3.17 | 3.12 | 3.24 | 9.51 | 32.6
16 | O=C(O)CC(NC(=O)Nc1ccc([N+](=O)[O-])cc1)C(=O)Nc1ccc([N+](=O)[O-])cc1 (centres undefined) | > 100 | > 100 | > 100 | > 100 | > 100 | > 100 | > 100 | > 100 | > 100 | > 100
